Values joined by “and” are separate entries in the source; they are usually repeats but may differ in a detail not shown here. Identical values can stand only once.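 Method: 48-hour compound exposure of cells in 96-well plates, five concentrations, linear interpolation of endpoints. Here, GI50 denotes the concentration required for 50% inhibition of growth. TGI marks complete inhibition of growth.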
Assays:
Assay in all cases: NCI tumour cell line growth inhibition, 48 h
[1] = tested on: ACHN renal
[2] = tested on: SR leukemia
[3] = tested on: K-562 leukemia
[4] = tested on: OVCAR-4 ovarian
[5] = tested on: MALME-3M melanoma
[6] = tested on: 786-0 renal
[7] = tested on: SW-620 colon
[8] = tested on: HCT-15 colon
[9] = tested on: HCC-2998 colon
[10] = tested on: MDA-MB-231 breast

SMILES | TGI [1] [µM] | TGI [2] [µM] | TGI [3] [µM] | TGI [4] | TGI [5] [µM] | TGI [6] | TGI [7] | TGI [8] [µM] | TGI [9] [µM] | GI50 [1] [µM] | GI50 [3] [µM] | GI50 [4] [µM] | GI50 [5] [µM] | GI50 [6] [µM] | GI50 [7] [µM] | GI50 [8] [µM] | GI50 [9] [µM] | GI50 [10] [µM] | TGI [10] [µM]
O=C(O)CNc1c2ccccc2nc2ccccc12 | > 100 | > 100 | > 100 | > 100 µM | > 100 | > 100 µM | > 100 µM | > 100 | > 100 |  |  |  |  |  |  |  |  |  | 
N#CC(C(=O)/C(=N/N)C(C#N)c1ccc(Cl)cc1)c1ccc(Cl)cc1 (stereo not drawn) | > 100 |  | > 100 | > 100 µM | > 100 | > 100 µM | > 100 µM | > 100 | > 100 |  |  |  |  |  |  |  |  |  | 
CC(=O)OC1C(=O)C(O)C(C)OC1O[C@@H]1C[C@@]2(C)[C@@H]3CC=C4[C@@H](C[C@H](O)C(=O)C4(C)C)[C@]3(C)C(=O)C[C@]2(C)[C@H]1[C@@](C)(O)C(=O)/C=C/C(C)(C)O (stereo partly drawn) | 7.38 | > 10 | > 10 | 5.51 µM | 9.83 | 4.64 µM | 9.85 µM | > 9.45 | 8.32 |  |  |  |  |  |  |  |  |  | 
COC(=O)C(CCS(=O)(=O)CC(=O)C(=O)Nc1cccc(C(C)=O)c1)C(=O)OC | > 100 | 50 | > 100 | > 100 µM | > 100 | > 100 µM | > 100 µM | > 100 | > 100 |  |  |  |  |  |  |  |  |  | 
O=C1C(Cl)=C(Cl)C(=O)N1C1C2CC3CC(C2)CC1C3 (stereo not drawn) | > 100 | > 100 | > 92.2 | > 100 µM | > 100 | > 100 µM | > 100 µM | > 100 | > 100 |  |  |  |  |  |  |  |  |  | 
CCCCCCCCCCC/C(=N/O)c1ccc(O)c2ncccc12 | 6.14 |  |  | 19.2 µM | 12.6 | 30.2 µM | > 100 µM |  | 23.1 |  |  |  |  |  |  |  |  |  | 
CCCN(CCCCC(NC(C)=O)C(=O)NCc1ccccc1)C(=O)NCCCl (stereo not drawn) | > 100 | > 100 | > 100 | > 100 µM | > 100 | > 100 µM | > 100 µM | > 100 | > 100 |  |  |  |  |  |  |  |  |  | 
CC(C)N(C(=O)C12C3C4C5(C#N)C3C1(I)C5C42I)C(C)C (stereo not drawn) | > 100 | > 100 | > 93.3 | > 77.4 µM | > 100 | > 64.7 µM | > 53.1 µM | > 57.7 | > 100 |  |  |  |  |  |  |  |  |  | 
CC(CN(CP(=O)([O-])[O-])CP(=O)([O-])[O-])N(CP(=O)([O-])[O-])CP(=O)([O-])[O-].N.N.[Pt+2] (stereo not drawn) | > 100 |  | > 100 | > 100 µM | > 100 | > 100 µM | > 100 µM | > 100 | > 100 | > 100 | > 100 | > 100 | > 100 | > 100 | > 100 | > 100 | > 100 |  | 
COC(=O)C1=C(C)N(NC(N)=O)C2(N)N(NC(N)=O)C(C)=C(C(=O)OC)C12C(=O)OC (stereo not drawn) | > 100 |  | > 100 | > 100 µM | > 100 | > 100 µM | > 100 µM | > 100 | > 100 |  |  |  |  |  |  |  |  |  | 
CC12CCC3C(CC=C4CC(O)CCC43C)C1C/C(=C\N1CCCC1)C2=O (stereo not drawn) | > 100 |  | > 100 | > 100 µM | > 100 | > 100 µM | > 100 µM | > 100 | > 100 | 91.8 | 55.8 | 61 | 71.5 | > 100 | > 100 | 87.1 | > 100 | 40.8 | > 100
CCCCCCCCCC(=O)CC(=O)c1ccc(O)cc1O | 89.3 | 44.9 | > 100 | > 100 µM | > 100 | > 100 µM | > 100 µM | > 100 | 46.3 |  |  |  |  |  |  |  |  |  | 
N[C@@H](Cc1c[nH]c2ccccc12)C(=O)NC1CCN(C(=O)c2c[nH]c3ccccc23)CC1 | > 100 |  | > 100 | > 100 µM | > 100 | > 100 µM | > 100 µM | > 100 | > 100 | > 100 | > 100 | 69.2 | 77.5 | 78.1 | > 100 | > 100 | > 100 | 75.4 | > 100
CCN1C2=NC(=O)N(C)C(=O)C2(Cl)C(C(SC)S(=O)(=O)c2ccc(C)cc2)c2ccccc21 (stereo not drawn) |  |  | 55.1 | 58.9 µM | > 100 | 52.9 µM | > 100 µM |  | > 100 |  |  |  |  |  |  |  |  |  | 
O=c1c2ccccc2c2ccccc2c(=O)n1-c1cc2c3ccccc3ccc2c2ccccc12 | > 100 |  |  | > 100 µM | > 100 | > 100 µM | > 100 µM | > 100 | 89.1 |  |  |  |  |  |  |  |  |  | > 100
Clc1ccc(Cl)c2[s+]snc12 | > 100 | > 100 | > 67.9 | > 100 µM | 99.5 | > 56.1 µM | > 51.9 µM | > 65.5 | > 100 |  |  |  |  |  |  |  |  |  | 
COC(=O)C1CC(C(=O)OC)c2nc3cc(C)ccc3nc21 (stereo not drawn) | > 100 |  | > 100 | > 100 µM | > 100 | > 100 µM | > 100 µM | > 100 | > 100 |  |  |  |  |  |  |  |  |  | 
COc1ccc2[nH]c(-c3ccccn3)cc(=O)c2c1 | > 100 |  | > 100 | > 100 µM | 75.6 | > 100 µM | > 100 µM |  |  |  |  |  |  |  |  |  |  |  | 
C/C(=N/S(=O)(=O)c1ccc(Cl)c(Cl)c1)OCC(C)(C)C | > 100 |  | > 100 | > 100 µM | > 100 | > 100 µM | > 100 µM | > 100 |  |  |  |  |  |  |  |  |  |  | > 100
O=C1c2cccc3cc([N+](=O)[O-])cc(c23)C(=O)N1CCNCCNCCNCCN1C(=O)c2cccc3cc([N+](=O)[O-])cc(c23)C1=O |  |  | 0.229 | 0.0473 µM and 0.415 µM | 0.297 | 1.08 µM and 0.612 µM | 0.449 µM and 0.534 µM | 1.08 | 0.226 |  |  | < 0.001 |  |  |  |  |  |  | 
CC(=O)Nc1ccc(/C=C/[N+](=O)[O-])cc1 | 9.44 |  | 8.57 | 7.97 µM | 17.7 | 7.61 µM | 11 µM | > 19.6 |  |  |  |  |  |  |  |  |  |  | 5.12
